The values that follow are results of earlier work, collected in patent publication US20080015265A1, “Methods of treating obesity using satiety factors” (priority 2006, published 2008).

Like-named read-outs stand apart in the source and are kept apart here. Where no end group is shown, it is not given here.

The conditions of data set [1]: species not stated.
The conditions of data set [2]: human subjects; peripheral or intravenous administration.
For data set [3] the following is noted: for food intake (feeding) / weight gain: rats and/or mice.
The conditions of data set [4]: for food intake: several species including humans.

Turning to `O=C1N[C@@H](Cc2cnc[nH]2)C(=O)N2CCC[C@@H]12` [cyclo-his-pro], the food intake entry in data set [1] is recorded as “reduce food intake”. As to `CC[C@H](C)[C@H](NC(=O)[C@@H]1CCCN1C(=O)CNC(=O)[C@H](Cc1ccccc1)NC(=O)[C@H](CC(N)=O)NC(=O)[C@H](CC(N)=O)NC(=O)[C@H](CO)NC(=O)[C@H](CO)NC(=O)[C@H](Cc1c[nH]cn1)NC(=O)[C@@H](NC(=O)[C@H](CC(C)C)NC(=O)[C@H](Cc1ccccc1)NC(=O)[C@H](CC(N)=O)NC(=O)[C@H](C)NC(=O)[C@H](CC(C)C)NC(=O)[C@H](CCCNC(=N)N)NC(=O)[C@H](CCC(N)=O)NC(=O)[C@@H](NC(=O)[C@H](C)NC(=O)[C@@H]1CSSC[C@H](NC(=O)[C@@H](N)CCCCN)C(=O)N[C@@H](CC(N)=O)C(=O)N[C@@H]([C@@H](C)O)C(=O)N[C@@H](C)C(=O)N[C@@H]([C@@H](C)O)C(=O)N1)[C@@H](C)O)C(C)C)C(=O)N[C@@H](CC(C)C)C(=O)N1CCC[C@H]1C(=O)N1CCC[C@H]1C(=O)N[C@H](C(=O)N[C@@H](CC(N)=O)C(=O)N[C@H](C(=O)NCC(=O)N[C@@H](CO)C(=O)N[C@@H](CC(N)=O)C(=O)N[C@H](C(=O)N[C@@H](Cc1ccc(O)cc1)C(N)=O)[C@@H](C)O)C(C)C)[C@@H](C)O` [pramlintide, reference compound], in data set [1], the “body weight (weight loss / weight gain)” value is recorded as “sustained weigh loss” and the food intake entry was “decreased food intake”. For the molecule `C=CC1=C(C)c2cc3[nH]c(cc4nc(cc5[nH]c(cc1n2)c(C)c5CCC(=O)O)C(CCC(=O)O)=C4C)c(C)c3C=C` [protoporphyrin], in data set [1], the “body weight (weight loss / weight gain)” value was “decrease food intake and body weight”; the food intake entry is “decrease food intake”. With “Glucagon-like peptide-1 (7-36)-amide (HAEGTFTSDVSSYLEGQAAKEFIAWLVKGR-NH2; UniProt P01275 98-127, looked up) [GLP-1]”, in data set [2], the food intake entry is reported as “reduce food intake” and the hunger / appetite entry is listed as “suppress hunger”. Take “NPW: ligand for orphan G protein-coupled receptors (WYKHVASPRYHTVGRAAGLLMGL; Neuropeptide W-23; UniProt Q8N729 33-55, looked up)”: the food intake entry (animals) is reported as “stimulate food intake”.

As to PYY3-36, the food intake entry in data set [2] is on record as “significant food intake reduction”. Further, in data set [3], the “food intake (feeding)” value was “inhibits food intake” and the weight gain result is recorded as “reduced weigh gain”. For “amylin (KCNTATCATQRLANFLVHSSNNFGAILSSTNVGSNTY; not fully specified (C-terminus, bridges); cysteine pairing not given here; UniProt P10997 34-70, looked up) [37 amino acid peptide released by the β cells of the pancreas]”, in data set [1], the “body weight (weight loss / weight gain)” value is listed as “sustained weigh loss” and the food intake result was “decreased food intake”. With beacon, under “animals”, the food intake result is given as “stimulate food intake”; the weight gain result was “stimulate food intake and weight gain”.

With “bombesin [bombesin or bombesin-like peptide]”, the food intake result in data set [4] was “Feed suppression”. As to “corticotropin-releasing hormone (SEEPPISLDLTFHLLREVLEMARAEQLAQQAHSNRKLMEII; ends and bridges not checked; UniProt P06850 154-194, looked up)”, under “animals”, the food intake result is recorded as “reduce food intake”.

dynorphin: the food intake result (animals) is on record as “stimulate food intake”. Consider enterostatin, for which the dietary fat preference result in data set [3] (mammals, demonstrated in rodent studies) is on record as “reduce dietary fat preference”. “galanin (GWTLNSAGYLLGPHAVGNHRSFSDKNGLTS; Galanin; UniProt P22466 33-62, looked up)”: in data set [3], the “food intake (feeding)” value is “stimulate food intake”. As to “galanin-like peptide (APAHRGRGGWTLNSAGYLLGPVLHLPQMGDQDGKRETALEILDLWKAIDGLPYSHPPQPS; Galanin-like peptide; UniProt Q9UBC7 25-84, looked up)”, the “food intake (feeding)” value in data set [3] was “stimulate food intake”.

With “ghrelin (GSSFLSPEHQRVQQRKESKKPPAKLQPR; ends and bridges not checked; also: octanoyl acylation; UniProt Q9UBU3 24-51, looked up) [28 amino acid acylated peptide produced mainly by the stomach]”, in data set [4] (rodents and persons), the body weight entry is reported as “increase body weight” and the fat oxidation result is given as “reducing fat oxidation”. In addition, the food intake result in data set [4] is reported as “stimulating food intake”. Take “growth hormone-releasing hormone (YADAIFTNSYRKVLGQLSARKLLQDIMSRQQGESNQERGARARL; ends and bridges not checked; UniProt P01286 32-75, looked up)”: in data set [1], the “body weight (weight loss / weight gain)” value was “stimulate food intake and weight gain”; the food intake result is listed as “stimulate food intake”. Regarding hypocretins/orexins, the appetite result in data set [3] (rats) is given as “stimulate appetite”. In addition, in data set [3], the “food intake (feeding)” value was “stimulate appetite and food intake”. With leptin, in data set [1], the “body weight (weight loss / weight gain)” value was “decrease food intake and body weigh”; the food intake result is recorded as “decrease food intake”. Consider “motilin (FVPIFTYGELQRMQEKERNKGQ; Motilin; UniProt P12872 26-47, looked up) [polypeptide hormone secreted by Mo cells of the small intestine]”, for which the gastrointestinal motility result in data set [1] is “increase the gastrointestinal motility”.

For “neuropeptide B (WYKPAAGHSSYSVGRAAGLLSGLRRSPYA; Neuropeptide B-29; UniProt Q8NG41 25-53, looked up) [ligand for orphan G protein-coupled receptors]”, the food intake result (animals) is on record as “stimulate food intake”. With “neuropeptide K (DADSSIEKQVALLKALYGHGQISHKRHKTDSFVGLM; ends and bridges not checked; UniProt P20366 72-107, looked up)”, where the note is “animals”, the food intake entry is “inhibit food intake”. In the case of neuropeptide Y, the food intake result (animals) was “stimulate food intake”. Turning to neurotensin, the food intake result in data set [1] is listed as “decrease food intake”. Consider obestatin, for which the jejunal contraction result in data set [3] (rats) is “inhibited jejunal contraction”. In addition, in data set [3], the “food intake (feeding)” value is reported as “suppressed food intake” and the weight gain entry is “decreased body weigh gain”.

Consider “oxyntomodulin (HSQGTFTSDYSKYLDSRRAQDFVQWLMNTKRNRNNIA; Oxyntomodulin; UniProt P01275 53-89, looked up) [37 amino acid peptide, product of the proglucagon gene]”, for which, in data set [4] (administered to rodents and humans), the energy intake result was “reduce energy intake”. Take oxytocin: the food intake result (animals) is listed as “increase food intake”. Consider prolactin-releasing peptide, for which the food intake result (animals) is “increase food intake”. For the molecule “somatostatin (AGCKNFFWKTFTSC; ends and bridges not checked; cysteine pairing not given here; UniProt P61278 103-116, looked up)”, under “animals”, the food intake result was “reduce food intake”. Regarding “urocortin (DNPSLSIDLTFHLLRTLLELARTQSQRERAEQNRIIFDSV; ends and bridges not checked; UniProt P55089 83-122, looked up)”, the “food intake (feeding)” value in data set [3] was “reduces feeding”. Besides, in data set [3] (rats, infused), the drinking result is “reduces feeding and drinking”. For “vasopressin (CYFQNCPRG; ends and bridges not checked; cysteine pairing not given here; UniProt P01185 20-28, looked up)”, the food intake entry (animals) was “reduce food intake”. For β casomorphin, the food intake result reads like this: (animals with a high fat diet) “increase food intake”; (animals with a low fat diet) “decrease food intake”.

B1: nesfatin (protein, UniProt P80303 25-106, looked up)
Nesfatin-1: VPIDIDKTKVQNIHPVESAKIEPPDTGLYYDEYLKQVIDVLETDKHFREKLQKADIEEIKSGRLSKELDLVSHHVRTKLDEL
modifications: Nesfatin-1
notes: produced by the brain
Take B1: the food intake entry (animals) was “reduce food intake in a dose-dependent manner”.

B2: apolipoprotein A-IV (protein, UniProt P06727 21-396, looked up)
Apolipoprotein A-IV: EVSADQVATVMWDYFSQLSNNAKEAVEHLQKSELTQQLNALFQDKLGEVNTYAGDLQKKLVPFATELHERLAKDSEKLKEEIGKELEELRARLLPHANEVSQKIGDNLRELQQRLEPYADQLRTQVSTQAEQLRRQLTPYAQRMERVLRENADSLQASLRPHADELKAKIDQNVEELKGRLTPYADEFKVKIDQTVEELRRSLAPYAQDTQEKLNHQLEGLTFQMKKNAEELKARISASAEELRQRLAPLAEDVRGNLRGNTEGLQKSLAELGGHLDQQVEEFRRRVEPYGENFNKALVQQMEQLRQKLGPHAGDVEGHLSFLEKDLRDKVNSFFSTFKEKESQDKTLSLPELEQQQEQQQEQQQEQVQMLAPLES
notes: non-gut peptide satiety factor
On to B2, for which, for the setting “animals”, the food intake entry is reported as “dose dependent reduction of food intake”.

B3: cholecystokinin (peptide, UniProt P06307 21-115, looked up)
Cholecystokinin: QPVPPADPAGSGLQRAEEAPRRQLRVSQRTDGESRAHLGALLARYIQQARKAPSGRMSIVKNLQNLDPSHRISDRDYMGWMDFGRRSAEEYEYPS
notes: gut peptide released mainly in response to dietary fat
As to B3, the food intake result in data set [4] is “dose-dependent inhibition of food intake”.

B4: ciliary neurotrophic factor (protein, UniProt P26441 1-200, looked up)
Ciliary neurotrophic factor: MAFTEHSPLTPHRRDLCSRSIWLARKIRSDLTALTESYVKHQGLNKNINLDSADGMPVASTDQWSELTEAERLQENLQAYRTFHVLLARLLEDQQVHFTPTEGDFHQAIHTLLLQVAAFAYQIEELMILLEYKIPRNEADGMPINVGDGGLFEKKLWGLKVLQELSQWTVRSIHDLRFISSHQTGIPARGSHYIANNKKM
In the case of B4, the “body weight (weight loss / weight gain)” value in data set [1] is listed as “cause weigh loss”.
